Source: patent publication US10517842B2, “Methods of modulating miRNA levels and compositions for use in the same” (Los Angeles Biomedical Research Institute at Harbor-UCLA …, priority 2017, dated 2019)

Key:
[1] = system: leiomyoma smooth muscle cells (LSMC); assay: Cell proliferation assay (MTT); assay type: cell-based, human; conditions: Tranilast 100 to 400 μM, 48 hrs, dose-dependent, p<0.05
Text: Leiomyomas and matched myometrium (N=12) were collected from patients scheduled to undergo hysterectomy at Harbor-UCLA Medical Center with prior approval from Institutional Review Board (#036247). The tissues were either snap frozen and stored in liquid nitrogen for further analysis, or used for isolation of LSMC as previously described (Chuang et al., “miR-200c is aberrantly expressed in leiomyomas in an ethnic-dependent manner and targets ZEBs, VEGFA, TIMP2, and FBLN5,” Endocrine-related cancer (2012)19:541-56; Chuang et al., “miR-93/106b and their host gene, MCM7, are differentially expressed in leiomyomas and functionally target F3 and IL-8. Molecular endocrinology,” (2012) 26:1028-42). Briefly, LSMC were cultured in DMEM supplemented with 10% fetal bovine serum until reaching confluence with a change of media every 2-3 days. […]
LSMC were seeded at 1000 cells/well in 96-well plates and cultured for 48 hrs. […] The rate of cell proliferation was determined using the MTT assay and cells were photographed as previously described (Chuang & Khorram, “Mechanisms underlying aberrant expression of miR-29c in uterine leiomyoma,” Fertility and sterility (2016)105:236-45.e1; Chuang et al., “The Regulatory Function of miR-200c on Inflammatory and Cell-Cycle Associated Genes in SK-LMS-1, A Leiomyosarcoma Cell Line,” Reproductive sciences (2015) 22:563-71). […]

CCND1 = assay: Immunoblotting, protein expression in LSMC; assay type: cell-based, human; conditions: Tranilast 200 μM, 48 h, Western blot, P<0.05
Experimental: (§1) Total protein isolated from LSMC treated with Tranilast (200 μM) at sub-confluence for 48 hrs and from tissues was subjected to immunoblotting as previously described (Chuang et al., “miR-29c induction contributes to downregulation of vascular extracellular matrix proteins by glucocorticoids,” American journal of physiology Cell physiology (2015) 309:C117-25). Specific antibodies generated against CCND1, COL3A1, TGF-β3 (Proteintech Group, Inc., Chicago, Ill.), CDK2, DNMT1 (Santa Cruz Biotechnology, Dallas, Tex.), COL1 (Fitzgerald Industries Intl., Acton, Mass.) and EZH2 (Cell Signaling Technology, Danvers, Mass.) were used to detect specific protein expression. The membranes were also stripped and probed with GAPDH antibody (Proteintech Group, Inc.) serving as loading control.

CDK2 = assay: Immunoblotting, protein expression in LSMC; assay type: cell-based, human; conditions: Tranilast 200 μM, 48 h, Western blot, P<0.05
Experimental: as §1

COL1 = assay: Immunoblotting, protein expression in LSMC; assay type: cell-based, human; conditions: Tranilast 200 μM, 48 h, Western blot, P<0.05
Experimental: as §1

COL3A1 = assay: Immunoblotting, protein expression in LSMC; assay type: cell-based, human; conditions: Tranilast 200 μM, 48 h, Western blot, P<0.05
Experimental: as §1

DNMT1 = assay: Immunoblotting, protein expression in LSMC; assay type: cell-based, human; conditions: Tranilast 200 μM, 48 h, Western blot, P<0.05
Experimental: as §1

EZH2 = assay: Immunoblotting, protein expression in LSMC; assay type: cell-based, human; conditions: Tranilast 200 μM, 48 h, Western blot, P<0.05
Experimental: as §1

TGF-β3 = assay: Immunoblotting, protein expression in LSMC; assay type: cell-based, human; conditions: Tranilast 200 μM, 48 h, Western blot, P<0.05
Experimental: as §1

[2] = system: 3′UTR of CDK2 in lung cancer cell line A549; assay: 3′UTR luciferase reporter assay in A549; assay type: cell-based; conditions: Tranilast

For `COc1ccc(C=CC(=O)Nc2ccccc2C(=O)O)cc1OC` [Tranilast, 2-[[3-(3,4-dimethoxyphenyl)-1-oxo-2-propenyl]amino]benzoic acid], the “rate of LSMC cell proliferation” value [1] was “significantly inhibited”, the “CCND1 expression, protein level” value (CCND1) was “significantly inhibited” and the “CDK2 expression, protein level” value (CDK2) was “significantly inhibited”. For the same compound, the “COL1 expression, protein level” value (COL1) was “significantly inhibited”, the “COL3A1 expression, protein level” value (COL3A1) was “significantly inhibited” and the “DNMT1 expression, protein level” value (DNMT1) was “significantly inhibited”. The “EZH2 expression, protein level” value (EZH2) was “significantly inhibited”, the “TGF-β3 expression, protein level” value (TGF-β3) was “significantly inhibited” and the “activity of luciferase reporter containing 3′UTR of CDK2” value [2] was “Inhibits”.
